Assay results published in patent US9662377B2, “Therapeutic composition for treatment of glioblastoma” (REGENTS OF THE UNIVERSITY OF MINNESOTA, priority 2010, dated 2017).

System: PBMCs from CMV sera-positive donors
Experiment: CMV assay (pp65-dependent IFNγ production)
Assay type: cell-based, human
Description: 5×10^5 HLA-A2^+ iDCs were pulsed with 100 μg of tumor lysates derived in 5% or 20% O2+/−10 μg of pp65 HLA-A2-restricted CMV antigen (NLVPMVATV) (SEQ ID NO: 15) and matured as described in the methods section. Following maturation, DCs were washed 3 times, and 5×10^5 PBMCs from CMV sera-positive donors were added to DCs. CMV sera-negative PBMCs were used as a negative control. Cells were incubated for 48 h, and supernatant was analyzed by cytometric bead array (BD Biosciences) for IFNγ. Cells were cultured for an additional 24 h, stained with anti-CD8, pp65 pentamer (ProImmune), and intracellularly stained for IFNγ production.
The inventors established an assay to determine if TLs altered DC-mediated CD8 T cell priming from a defined antigen not present in the TLs. To accomplish this, TLs were mixed with pp65 peptide, a specific marker antigen with well-defined CD8 T cell responses. […] Soluble IFNγ in the tissue culture supernatant was quantified as a measure of CD8 T cell activation. There was a background of […] of IFNγ detected in the supernatant when TLs were pulsed in the absence of pp65, possibly due to activation of T cells or natural killer (NK) cells irrespective of pp65 (FIG. 8B).

**Q.** What does the source list for NLVPMVATV [pp65]?
**A.** Response of sera-negative donor PBMCs (CMV sera-negative donor PBMCs): did not respond; IFNγ level above background (sera-positive donor PBMCs primed with pp65 alone (no TLs)): 2-4 fold
